Here are results for 14 compounds from patent EP4752152A1, “STEROID COMPOUND, AND PREPARATION METHOD THEREFOR AND USE THEREOF” (Cholesgen (Shanghai) Co.Ltd., priority 2023, dated 2025).

≈ marks a conversion by molar mass, not a printed value. Where two headings read alike, the source gives them in different places. A value given as a limit tells only on which side of the number the result lay.

Data set [1] can be described thus: Metabolic stability experiment of mouse liver microsomes. Format: in vitro ADME. The protocol:
PB solution (100 mM), MgCl2 solution (300 mM), NADPH solution (2.04 mM), and mouse liver microsome (SHQY catalog number: M1000, batch number: 2110330) solution (1.00 mg/mL) were prepared respectively. […] Then, 100 µL of mouse liver microsome solution was added to a 96-well sample plate. For the 0 min sample, acetonitrile solution containing the internal standard was first added; then, 2 µL of 100 µM working solution was added; followed by the addition of 98 µL of pre-warmed 2.04 mM NADPH at 37°C. For the 5 min, 15 min, 30 min, 45 min, and 60 min samples, 2 µL of 100 µM working solution was first added; followed by the addition of 98 µL of pre-warmed 2.04 mM NADPH at 37°C to initiate the reaction; upon reaching the respective time points, a solution of acetonitrile containing the internal standard was added to terminate the reaction. For the NCF60 sample, 2 µL of 100 µM working solution was first added; followed by the addition of 98 µL of pre-warmed PB at 37°C to initiate the reaction; upon reaching the respective time points, a solution of acetonitrile containing the internal standard was added to terminate the reaction. During the experiment, all samples were incubated in a 37°C water bath. All samples were shaken on an oscillator at 800 rpm for 10 min, then centrifuged at 3200 g for 20 min. The supernatant was aspirated, diluted with deionized water at the corresponding ratio, and analyzed by LC-MS/MS. The remaining percentage of the compound at each time point was obtained by dividing the peak area ratio of the compound at 5, 15, 30, 45, and 60 min by the peak area ratio at 0 min. The half-life (T1/2) of the compound was then calculated using Excel. Table 2: Mouse liver microsome stability results of compounds from some examples

The subject of data set [2] is SREBP pathway. Description: SREBP luciferase reporter gene system (SRE-luciferase assay). Type of data set: cell-based, human. The settings on record: Huh-7/SRE-luc cells, sterol-deficient medium, 0.01-10 µM. Put shortly: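 Readout was SRE-driven luciferase normalised to GFP fluorescence in lysates of stably transfected Huh-7/SRE-luc hepatoma cells. Compounds (0.01, 0.03, 0.1, 0.3, 1.0, 3.0, 10 µM; DMSO control) were applied for 16 h in sterol-depleted medium with 2 µM lovastatin and 10 µM mevalonate; IC50 from variable-slope fit.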

Data set [3] deals with Fatty Acid Synthase (FASN) gene. Description: Inhibition of FASN gene expression (qPCR) in Huh-7 cells. Type of data set: cell-based, human. The conditions noted are these: Homo sapiens, Huh-7, 16 h, read-out: FASN IC50. In a few lines:
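IC50 derived by four-parameter fit of FASN expression inhibition versus DMSO, measured by RT-qPCR. Compound exposure lasted 16 h at five 3-fold concentrations from 3000 nM, applied to Huh-7 cells in sterol-depleting medium with 5% LPDS, 2 µM lovastatin and 10 µM mevalonate.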
In general terms: In qPCR the cycle at which signal appears reflects the starting amount.

The nature of data set [4]: Solubility in fasted-state simulated intestinal fluid (FaSSIF). Type of data set: physicochemical. The conditions noted are these: FaSSIF, pH 6.5, fassif, kinetic from dmso stock, FaSSIF pH 6.5, 300 µM sample solution, room temperature. As to the method: Compound powder was dissolved in DMSO to prepare a 10.0 mM stock solution for later use. 0.021 g NaOH, 0.198 g NaH2PO4, and 0.309 g NaCl were weighed and added to 50.0 mL of ultrapure water. After thorough mixing, the pH was adjusted to 6.5 using HCl or NaOH. Then, 0.112 g of FaSSIF powder was added. After complete dissolution, the solution was allowed to stand at room temperature for 2 hours for later use. A certain volume of the compound stock solution was added to a certain volume of FaSSIF to prepare a 300 µM sample solution, which was mixed at room temperature under 1000 rpm for 1 hour. After 1 hour, the sample was centrifuged, and a certain volume of supernatant was taken. The termination solution was added to precipitate the sample, which was then thoroughly mixed and centrifuged for 20 minutes. The supernatant was then taken again, diluted with dilution solution, and then analyzed by liquid chromatography-tandem mass spectrometry (LC-MS/MS). The concentration of the test compound in the samples was quantitatively determined using LC-MS/MS. Table 3: FaSSIF solubility results of compounds from some examples

[5] abbreviates: Huh-7 cells, starvation medium, 16 hours, qPCR, class symbols.

Take `COc1cccc([C@@H](O)CCC[C@@H](C)[C@H]2CC[C@H]3[C@H]4[C@H](CC[C@]23C)[C@@]2(C)CC[C@H](O)[C@H](O)[C@@H]2CC4(F)F)c1OC` [Compound 70, (1R,3aS,3bS,5aR,6R,7S,9aR,9bS,11aR)-1-[(2R,6S)-6-(2,3-dimethoxyphenyl)-6-hydroxyhexan-2-yl]-4,4-difluoro-9a,11a-dimethylhexadecahydro-1H-cyclopenta[1,2-a]phenanthrene-6,7-diol]: the half-life at 1 µM in data set [1] came out at 34.9 min. Further, the half-inhibitory concentration (IC50) in data set [2] (Homo sapiens, Huh-7, 16 h) was 0.211 µM; in data set [3] (setting [5]), less than 200 nM.

In data set [1], `C[C@H](CCCC(O)c1ccccc1F)[C@H]1CC[C@H]2[C@H]3[C@H](CC[C@]12C)[C@@]1(C)CC[C@H](O)C(=O)[C@@H]1CC3(F)F` (stereo partly drawn) [Compound 11, (1R,3aS,3bS,5aR,7S,9aR,9bS,11aR)-4,4-difluoro-1-[(2R)-6-(2-fluorophenyl)-6-hydroxyhexan-2-yl]-7-hydroxy-9a,11a-dimethylhexadecahydro-1H-cyclopenta[1,2-a]phenanthren-6-one] displayed a half-life at 1 µM of 49.1 min. Moreover, the concentration for half-maximal inhibition (IC50) in data set [2] (Homo sapiens, Huh-7, 16 h) is 0.19 µM; in data set [3] (setting [5]) it was 200 to 500 nM.

Compound `COc1nccc(F)c1C(O)CCC[C@@H](C)[C@H]1CC[C@H]2[C@H]3[C@H](CC[C@]12C)[C@@]1(C)CC[C@H](O)[C@H](O)[C@@H]1CC3(F)F` (stereo partly drawn) [Compound 126, (1R,3aS,3bS,5aR,6R,7S,9aR,9bS,11aR)-4,4-difluoro-1-[(2R)-6-(4-fluoro-2-methoxypyridin-3-yl)-6-hydroxyhexan-2-yl]-9a,11a-dimethylhexadecahydro-1H-cyclopenta[1,2-a]phenanthrene-6,7-diol] returned a half-life at 1 µM in data set [1] of 108 min. Further, in data set [2] (Homo sapiens, Huh-7, 16 h), the half-maximal inhibitory concentration (IC50) came out at 0.153 µM.

The compound `C[C@H](CCC1CC(N)C1)[C@H]1CC[C@H]2[C@@H]3CC[C@H]4C[C@@H](O)CC[C@]4(C)[C@H]3CC[C@]12C` (stereo partly drawn) [Compound 136, (20R)-20-[2-(3-aminocyclobutyl)ethyl]-5α-pregnan-3β-ol] displayed a half-life at 1 µM in data set [1] of 96.2 min.

As to `C[C@H](CCCC(O)c1ccc2c(n1)OC(F)(F)O2)[C@H]1CC[C@H]2[C@H]3[C@H](CC[C@]12C)[C@@]1(C)CC[C@H](O)[C@H](O)[C@@H]1CC3(F)F` (single isomer, unassigned) [Compound 265], in data set [4], the solubility at 1 h was 107 µM (≈ 62.9 µg/mL). The IC50 in data set [2] (16 hours) was 0.006 µM; in data set [3], less than 200 nM.

As for `COc1cc(F)nc(OC)c1[C@@H](O)CCC[C@@H](C)[C@H]1CC[C@H]2[C@H]3[C@H](CC[C@]12C)[C@@]1(C)CC[C@H](O)[C@H](O)[C@@H]1CC3(F)F` (single isomer, unassigned) [Compound 263], in data set [4], the concentration in solution (solubility at 1 h) was 63 µM (≈ 36.8 µg/mL). For the same compound, the IC50 was 0.032 µM in data set [2] (Homo sapiens, Huh-7, 16 h) and less than 200 nM in data set [3] (setting [5]).

The compound `COc1cc(F)ccc1C(O)CCC[C@@H](C)[C@H]1CC[C@H]2C3=C(F)C[C@H]4[C@@H](O)[C@@H](O)CC[C@]4(C)[C@H]3CC[C@]12C` (stereo partly drawn) [Compound 36, (1R,3aR,5aR,6R,7S,9aR,9bR,11aR)-4-fluoro-1-[(2R)-6-(4-fluoro-2-methoxyphenyl)-6-hydroxyhexan-2-yl]-9a,11a-dimethyl-2,3,3a,5,5a,6,7,8,9,9a,9b,10,11,11a-tetradecahydro-1H-cyclopenta[1,2-a]phenanthrene-6,7-diol] came in with a half-life at 1 µM in data set [1] greater than 186 min. In addition, in data set [2] (Homo sapiens, Huh-7, 16 h), the IC50 was 0.2 µM.

As for `CCOc1nc(F)ccc1[C@H](O)CCC[C@@H](C)[C@H]1CC[C@H]2[C@H]3[C@H](CC[C@]12C)[C@@]1(C)CC[C@H](O)[C@H](O)[C@@H]1CC3(F)F` (single isomer, unassigned) [Compound 283], the concentration in solution in data set [4] (solubility at 1 h) was 288 µM (≈ 163 µg/mL). The IC50 in data set [2] (Homo sapiens, Huh-7, 16 h) is 0.027 µM; in data set [3] (setting [5]), less than 200 nM.

In data set [4], `COc1cc(F)nc(F)c1[C@@H](O)CCC[C@@H](C)[C@H]1CC[C@H]2[C@H]3[C@H](CC[C@]12C)[C@@]1(C)CC[C@H](O)[C@H](O)[C@@H]1CC3(F)F` (single isomer, unassigned) [Compound 234] came in with a solubility at 1 h of 49.3 µM (≈ 28.2 µg/mL). Besides, the IC50 is 0.029 µM in data set [2] (Homo sapiens, Huh-7, 16 h) and less than 200 nM in data set [3] (setting [5]).

With `COc1nc(F)ccc1C(O)CCC[C@@H](C)[C@H]1CC[C@H]2[C@H]3[C@H](CC[C@]12C)[C@@]1(C)CC[C@H](O)[C@H](O)[C@@H]1CC3(F)F` (single isomer, unassigned) [Compound 188, (1R,3aS,3bS,5aR,6R,7S,9aR,9bS,11aR)-4,4-difluoro-1-[(2R,6S)-6-(6-fluoro-2-methoxypyridin-3-yl)-6-hydroxyhexan-2-yl]-9a,11a-dimethylhexadecahydro-1H-cyclopenta[1,2-a]phenanthrene-6,7-diol or (1R,3aS,3bS,5aR,6R,7S,9aR,9bS,11aR)-4,4-difluoro-1-[(2R,6R)-6-(6-fluoro-2-methoxypyridin-3-yl)-6-hydroxyhexan-2-yl]-9a,11a-dimethylhexadecahydro-1H-cyclopenta[1,2-a]phenanthrene-6,7-diol], the concentration in solution in data set [4] (solubility at 1 h) was 139 µM (≈ 76.9 µg/mL). Also, the IC50 is 0.142 µM in data set [2] (16 hours) and less than 200 nM in data set [3] (setting [5]).

Consider `COc1cccc(F)c1C(O)CC[C@@H](C)[C@H]1CC[C@H]2[C@H]3[C@H](CC[C@]12C)[C@@]1(C)CC[C@H](O)[C@H](O)[C@@H]1CC3(F)F` (stereo partly drawn) [Compound 333, (1R,3aS,3bS,5aR,6R,7S,9aR,9bS,11aR)-4,4-difluoro-1-[(2R)-5-(2-fluoro-6-methoxyphenyl)-5-hydroxypentan-2-yl]-9a,11a-dimethylhexadecahydro-1H-cyclopenta[1,2-a]phenanthrene-6,7-diol], for which the solubility at 1 h in data set [4] was 148 µM (≈ 79.7 µg/mL). Besides, the IC50 in data set [2] (Homo sapiens, Huh-7, 16 h) was 0.118 µM; in data set [3] (setting [5]) it was 200 to 500 nM.

In turn, `COc1nc(F)ccc1[C@H](O)CC[C@@H](C)[C@H]1CC[C@H]2[C@H]3[C@H](CC[C@]12C)[C@@]1(C)CC[C@H](O)[C@H](O)[C@@H]1CC3(F)F` [Compound 338, (1R,3aS,3bS,5aR,6R,7S,9aR,9bS,11aR)-4,4-difluoro-1-[(2R,5R)-5-(6-fluoro-2-methoxypyridin-3-yl)-5-hydroxypentan-2-yl]-9a,11a-dimethylhexadecahydro-1H-cyclopenta[1,2-a]phenanthrene-6,7-diol] returned a solubility at 1 h in data set [4] of 34.7 µM (≈ 18.7 µg/mL). The 50% inhibitory concentration (IC50) in data set [2] (Homo sapiens, Huh-7, 16 h) is 0.143 µM; in data set [3] (setting [5]), less than 200 nM.

Take `COc1cccc(F)c1C(O)CCC[C@@H](C)[C@H]1CC[C@H]2[C@@H]3CC[C@H]4[C@@H](O)[C@@H](O)CC[C@]4(C)[C@H]3CC[C@]12C` (stereo partly drawn) [Compound 20, 24-[(2-Fluoro-6-methoxyphenyl)(hydroxy)methyl]-5α-cholane-3β,4β-diol]: the half-life at 1 µM in data set [1] is 29.9 min. Also, the IC50 in data set [2] (Homo sapiens, Huh-7, 16 h) is 0.23 µM.

In data set [4], `C[C@H](CCCC(O)c1cccc2c1nnn2C)[C@H]1CC[C@H]2[C@H]3[C@H](CC[C@]12C)[C@@]1(C)CC[C@H](O)[C@H](O)[C@@H]1CC3(F)F` (stereo partly drawn) [Compound 272, (1R,3aS,3bS,5aR,6R,7 S,9aR,9bS,11aR)-4,4-Difluoro-1-[(2R)-6-hydroxy-6-(1-methylbenzo[d][1,2,3]triazol-4-yl)hexan-2-yl]-9a,11a-dimethylhexadecahyd ro-1H-cyclopenta[1,2-a]phenanthrene-6,7-diol] had a solubility at 1 h of 225 µM (≈ 126 µg/mL). Also, the IC50 was 0.116 µM in data set [2] (Homo sapiens, Huh-7, 16 h) and less than 200 nM in data set [3] (setting [5]).

For orientation: half-life means the time in which the quantity being followed falls by half. Low values mean fast loss, high ones slow loss. The IC50 is the concentration that inhibits the measured activity by half. The term solubility denotes the concentration that dissolves in the medium under given conditions.
